Data taken from patent publication US20070197525A1, “Novel tetracyclic tetrahydrofuran derivatives” (priority 2004, published 2007).

What was measured:
[1] = target: T1, norepinephrine transporter (NET) (Rattus norvegicus, UniProt Q63380); experiment: In vitro assay for NET inhibition (radioligand binding, rat brain cortex); settings: rat brain cortex membranes, [3H]Nixosetine radioligand; for IC50: read-out: NET-inhibition (pIC50) (converted)
T1 construct: Cortex from rat brain was collected and homogenised; from tissue; host or cells: rat brain cortex membranes
Protocol: Cortex from rat brain was collected and homogenised using an Ultra-Turrax T25 and a Dual homogeniser in ice-cold homogenising buffer containing Tris, NaCl and KCl (50 mM, 120 mM and 5 mM, respectively, pH 7.4) prior to dilution to an appropriate protein concentration optimised for specific and non-specific binding. […] Membrane-bound activity was detected by filtration through a Packard Filtermate harvester onto GF/B Unifilterplates, washed with ice-cold Tris-HCl buffer, containing NaCl and KCl (50 mM, 120 mM and 4 mM; pH 7.4; 6×0.5 ml). Filters were allowed to dry for 24 h before adding scintillation fluid. Scintillation fluid was allowed to saturate filters for 24 h before counting in a Topcount scintillation counter. Percentage specific bound and competition binding curves were calculated using S-Plus software (Insightful).

[2] = target: T2, human cloned 5-HT2C receptor (Homo sapiens, UniProt P28335); experiment: In vitro binding affinity for 5-HT2C receptor (radioligand binding); settings: human cloned 5-HT2C receptor expressed in CHO cells, [3H]mesulergine radioligand; read-out: 5-HT2C (pIC50) (converted)
T2 construct: expressed in transfected cells; host or cells: CHO cells
T2 sequence (P28335 33-458): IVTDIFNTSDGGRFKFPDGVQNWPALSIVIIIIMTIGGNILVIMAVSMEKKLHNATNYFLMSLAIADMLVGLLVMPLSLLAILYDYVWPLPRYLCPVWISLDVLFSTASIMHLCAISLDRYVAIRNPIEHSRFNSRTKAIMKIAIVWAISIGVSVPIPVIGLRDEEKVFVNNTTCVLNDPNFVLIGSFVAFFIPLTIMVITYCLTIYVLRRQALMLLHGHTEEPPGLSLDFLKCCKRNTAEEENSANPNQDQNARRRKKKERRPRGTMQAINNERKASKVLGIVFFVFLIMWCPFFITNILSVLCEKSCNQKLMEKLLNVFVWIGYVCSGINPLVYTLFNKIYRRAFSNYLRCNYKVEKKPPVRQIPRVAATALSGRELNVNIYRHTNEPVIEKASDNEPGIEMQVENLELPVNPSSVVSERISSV
Protocol: (§1) The interaction of the compounds of Formula (I) with 5-HT2A and 5-HT2C receptors was assessed in in vitro radioligand binding experiments. In general, a low concentration of a radioligand with a high binding affinity for the receptor is incubated with a sample of a tissue preparation enriched in a particular receptor (1 to 5 mg tissue) in a buffered medium (0.2 to 5 ml). During the incubation, the radioligands bind to the receptor. When equilibrium of binding is reached, the receptor bound radioactivity is separated from the non-bound radioactivity, and the receptor bound activity is counted. The interaction of the test compounds with the receptors is assessed in competition binding experiments. Various concentrations of the test compound are added to the incubation mixture containing the tissue preparation and the radioligand. Binding of the radioligand will be inhibited by the test compound in proportion to its binding affinity and its concentration. The affinities of the compounds for the 5-HT2 receptors were measured by means of radioligand binding studies conducted with: (a) human cloned 5-HT2A receptor, expressed in L929 cells using [^125I]R91150 as radioligand and (b) human cloned 5-HT2C receptor, expressed in CHO cells using [^3H]mesulergine as radioligand.

[3] = target: T3, human dopamine D2L receptor (Homo sapiens, UniProt P14416); experiment: In vitro assay for D2 receptor binding; settings: for IC50 / D2 (pIC50): membranes of human D2L-transfected CHO cells, [3H]Spiperone radioligand; for IC50: read-out: D2 (pIC50) (converted); for D2/NET: ratio of D2 pIC50 to NET-inhibition pIC50
T3 construct: expressed in transfected cells; host or cells: CHO cells (frozen membranes)
Protocol: Frozen membranes of human dopamine D2L receptor-transfected CHO cells were thawed, briefly homogenised using an Ultra-Turrax T25 homogeniser and diluted in Tris-HCl assay buffer containing NaCl, CaCl2, MgCl2, KCl (50, 120, 2, 1, and 5 mM respectively, adjusted to pH 7.7 with HCl) to an appropriate protein concentration optimised for specific and non-specific binding. Radioligand [^3H]Spiperone (NEN, specific activity ˜70 Ci/mmol) was diluted in assay buffer at a concentration of 2 nmol/L. Prepared radioligand (50 μl), along with 50 μl of either the 10% DMSO control, Butaclamol (10^−6 mol/l final concentration), or compound of interest, was then incubated (30 min, 37° C.) with 400 μl of the prepared membrane solution. Membrane-bound activity was filtered through a Packard Filtermate harvester onto GF/B Unifilterplates and washed with ice-cold Tris-HCl buffer (50 mM; pH 7.7; 6×0.5 ml). Filters were allowed to dry before adding scintillation fluid and counting in a Topcount scintillation counter. Percentage specific bound and competition binding curves were calculated using S-Plus software (Insightful).

[4] = target: T4, human cloned 5-HT2A receptor (Homo sapiens, UniProt P28223); experiment: In vitro binding affinity for 5-HT2A receptor (radioligand binding); settings: human cloned 5-HT2A receptor expressed in L929 cells, [125I]R91150 radioligand; read-out: 5-HT2A (pIC50) (converted)
T4 construct: expressed in transfected cells; host or cells: L929 cells
Protocol: as §1

T4 sequence (P28223 whole entry): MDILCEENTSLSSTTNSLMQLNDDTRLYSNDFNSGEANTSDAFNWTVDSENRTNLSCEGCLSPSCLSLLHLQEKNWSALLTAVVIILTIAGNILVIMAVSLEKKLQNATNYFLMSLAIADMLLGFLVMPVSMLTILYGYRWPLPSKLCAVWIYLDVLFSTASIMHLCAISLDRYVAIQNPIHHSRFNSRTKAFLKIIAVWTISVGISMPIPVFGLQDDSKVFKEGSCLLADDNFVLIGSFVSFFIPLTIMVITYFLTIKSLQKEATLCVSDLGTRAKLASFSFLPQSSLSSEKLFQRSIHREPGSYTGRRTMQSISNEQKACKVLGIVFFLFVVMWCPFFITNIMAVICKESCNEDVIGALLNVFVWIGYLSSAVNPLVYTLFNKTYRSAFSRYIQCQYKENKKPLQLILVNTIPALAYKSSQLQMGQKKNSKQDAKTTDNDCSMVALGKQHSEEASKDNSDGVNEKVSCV
T3 sequence (P14416 whole entry): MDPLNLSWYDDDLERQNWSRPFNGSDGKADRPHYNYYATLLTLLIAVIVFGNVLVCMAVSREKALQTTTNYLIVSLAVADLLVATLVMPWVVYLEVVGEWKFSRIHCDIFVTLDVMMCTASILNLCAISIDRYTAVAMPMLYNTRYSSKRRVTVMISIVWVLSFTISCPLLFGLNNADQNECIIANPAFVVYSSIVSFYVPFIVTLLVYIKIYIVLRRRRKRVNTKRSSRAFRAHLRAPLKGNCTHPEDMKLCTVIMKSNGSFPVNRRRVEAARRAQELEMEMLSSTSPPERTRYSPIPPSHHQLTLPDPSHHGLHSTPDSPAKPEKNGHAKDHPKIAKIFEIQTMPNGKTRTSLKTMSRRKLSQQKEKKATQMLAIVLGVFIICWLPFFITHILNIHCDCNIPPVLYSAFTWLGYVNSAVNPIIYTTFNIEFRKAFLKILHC
T1 sequence (Q63380 1-617): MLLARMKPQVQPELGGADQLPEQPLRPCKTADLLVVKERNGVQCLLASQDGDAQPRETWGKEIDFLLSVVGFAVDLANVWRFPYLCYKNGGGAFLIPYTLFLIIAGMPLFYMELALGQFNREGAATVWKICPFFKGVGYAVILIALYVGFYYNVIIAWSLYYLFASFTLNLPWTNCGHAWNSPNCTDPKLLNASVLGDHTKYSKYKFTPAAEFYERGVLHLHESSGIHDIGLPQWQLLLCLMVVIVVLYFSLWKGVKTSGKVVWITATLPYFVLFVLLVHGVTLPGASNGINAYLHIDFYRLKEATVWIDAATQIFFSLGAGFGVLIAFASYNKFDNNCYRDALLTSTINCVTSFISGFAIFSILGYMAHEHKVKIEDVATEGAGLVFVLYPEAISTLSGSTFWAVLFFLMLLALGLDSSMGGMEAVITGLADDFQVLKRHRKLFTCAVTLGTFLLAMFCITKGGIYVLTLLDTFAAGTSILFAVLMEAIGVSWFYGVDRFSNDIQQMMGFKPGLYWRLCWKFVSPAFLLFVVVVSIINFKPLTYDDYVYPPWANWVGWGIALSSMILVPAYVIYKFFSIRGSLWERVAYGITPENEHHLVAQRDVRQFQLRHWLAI

SMILES | IC50 [1] | IC50 [2] | IC50 [3] | D2/NET [3] | IC50 [4] | NET-inhibition (pIC50) [1] | D2 (pIC50) [3]
CNC[C@@H]1C[C@H]2c3ccccc3C(C)c3ccc(F)cc3[C@@H]2O1 (mixture of isomers) [Compound 99] | 63.1 nM | 200 nM | > 10000 nM | <0.69 |  |  | 
CNC[C@H]1C[C@H]2c3cc(F)ccc3C(C)c3ccccc3[C@@H]2O1 (mixture of isomers) [Compound 102] | 31.6 nM | 50.1 nM | 7940 nM | 0.68 |  |  | 
CCNC[C@H]1C[C@@H]2c3ccccc3[C@@H](O)c3ccc(F)cc3[C@H]2O1 (relative stereo) [Compound 106] | 3.98 nM | 5.01 nM | 1260 nM | 0.67 | 20 nM |  | 
C=C1c2ccccc2C2CC(CN(C)C)OC2c2ccccc21 (single isomer, unassigned) [Compound 24] | 20 nM | 25.1 nM | > 10000 nM | <0.65 | 158 nM |  | 
CNCC1CC2c3ccccc3C(C)c3ccc(F)cc3C2O1 (single isomer, unassigned) [Compound 73] | 39.8 nM | 2 nM | 63.1 nM | 0.96 | 2 nM |  | 
C=C1c2ccc(F)cc2C2CC(CNC)OC2c2ccccc21 (single isomer, unassigned) [Compound 93] | 6.31 nM | 3.98 nM |  | 0.73 |  |  | 
C=C1c2ccc(F)cc2C2CC(CNC)OC2c2ccccc21 (single isomer, unassigned) [Compound 94] |  | 20 nM | 5010 nM | 0.65 |  | 8.2 | 
CNCC1CC2c3ccccc3C(C)c3ccc(F)cc3C2O1 (single isomer, unassigned) [Compound 100] | 7.94 nM | 158 nM | > 10000 nM | <0.62 |  |  | 
CNCC1CC2c3cc(F)ccc3C(C)(O)c3ccccc3C2O1 (single isomer, unassigned) [Compound 114] | 631 nM | 1000 nM |  | <0.83 |  |  | <5
CNCC1CC2c3cc(F)ccc3C(C)(O)c3ccccc3C2O1 (single isomer, unassigned) [Compound 115] | 1260 nM | 1580 nM | > 10000 nM | <0.85 |  |  | 
CCNCC1CC2c3ccccc3C(C)(O)c3ccc(F)cc3C2O1 (single isomer, unassigned) [Compound 118] | 631 nM | 100 nM | 2000 nM | 0.91 |  |  | 
CCNCC1CC2c3ccccc3C(C)(O)c3ccc(F)cc3C2O1 (single isomer, unassigned) [Compound 119] | 31.6 nM | 20 nM |  | 0.67 |  |  | 
CNCC1CC2c3ccccc3C(C)(O)c3ccc(F)cc3C2O1 (single isomer, unassigned) [Compound 124] | 316 nM | 6310 nM |  | <0.77 |  |  | <5
CNCC1CC2c3ccccc3C(C)(O)c3ccc(F)cc3C2O1 (single isomer, unassigned) [Compound 125] | 2000 nM | 6310 nM | > 10000 nM | <0.88 |  |  | 
CNCC1CC2c3ccccc3C(C)(O)c3ccc(F)cc3C2O1 (single isomer, unassigned) [Compound 126] | 63.1 nM | 501 nM |  | <0.69 |  |  | <5
CN(C)C[C@H]1C[C@@H]2c3ccccc3C(=O)c3ccc(F)cc3[C@H]2O1 [Compound 12] | 63.1 nM | 79.4 nM | > 1000 nM | <0.83 | 63.1 nM |  | 
COc1ccc2c(c1)[C@H]1O[C@@H](CN(C)C)C[C@@H]1c1ccccc1C2=O [Compound 16] | 501 nM | 50.1 nM |  | 0.95 |  |  | 
C=C1c2ccccc2[C@H]2C[C@H](CN(C)C)O[C@@H]2c2ccccc21 [Compound 25] | 12.6 nM | 3.98 nM | 200 nM | 0.85 | 12.6 nM |  | 
C=C1c2ccc(F)cc2C2CC(CN(C)C)OC2c2cc(F)ccc21 (stereo not drawn) [Compound 29] | 5.01 nM | 12.6 nM | > 1000 nM | <0.72 |  |  | 
CNC[C@H]1C[C@@H]2c3ccccc3[C@H](O)c3ccc(F)cc3[C@H]2O1 [Compound 34] | 20 nM | 5.01 nM | > 1000 nM | <0.77 | 31.6 nM |  | 
COC1c2ccccc2[C@H]2C[C@H](CN(C)C)O[C@@H]2c2cc(F)ccc21 (stereo partly drawn) [Compound 60] | 126 nM | 39.8 nM | 3980 nM | 0.79 |  |  | 
CNC[C@H]1C[C@@H]2c3ccccc3[C@@H](OC(C)C)c3ccc(F)cc3[C@H]2O1 [Compound 63] | 3980 nM | 100 nM | > 10000 nM | <0.92 | 316 nM |  | 
CC1c2ccc(F)cc2C2CC(CN(C)C)OC2c2cc(F)ccc21 (stereo not drawn) [Compound 77] | 31.6 nM | 50.1 nM | > 1000 nM | <0.80 |  |  | 
C[C@@H]1c2ccccc2[C@H]2C[C@H](CN(C)C)O[C@@H]2c2cc(N(C)C)ccc21 [Compound 78] | 398 nM | 100 nM | 2000 nM | 0.88 |  |  | 
C=C1c2ccccc2[C@@H]2C[C@@H](CNC)O[C@H]2c2cc(F)ccc21 [Compound 95] | 15.8 nM | 50.1 nM | 6310 nM | 0.67 |  |  | 
CNC[C@H]1C[C@@H]2c3cc(F)ccc3[C@@H](C)c3ccccc3[C@H]2O1 [Compound 101] | 15.8 nM | 20 nM | 3980 nM | 0.69 |  |  | 
NC[C@H]1C[C@@H]2c3ccccc3[C@@H](O)c3ccc(F)cc3[C@H]2O1 [Compound 104] | 200 nM | 2.51 nM | 7940 nM | 0.60 | 12.6 nM |  | 
CCNC[C@H]1C[C@@H]2c3ccccc3[C@H](O)c3ccc(F)cc3[C@H]2O1 [Compound 107] | 158 nM | 6.31 nM | 1580 nM | 0.86 | 20 nM |  | 
OC1c2ccccc2C2CC(CNCc3ccccc3)OC2c2cc(F)ccc21 (stereo not drawn) [Compound 109] | 3980 nM | 12.6 nM | > 10000 nM | <0.92 |  |  | 
COC1c2ccccc2C2CC(CNCc3ccccc3)OC2c2cc(F)ccc21 (stereo not drawn) [Compound 111] | 2000 nM | 79.4 nM | 3160 nM | 0.96 |  |  | 
